Experiments:
Assay in all cases: DGHM suspension test, microbicidal activity
Format in all cases: cell-based
[1] = test system: Pseudomonas aeruginosa ATCC 15442
Method: (§1) The microbicidal activity of the quanterary carboxylic acid alkanolamine ester salts used in accordance with the invention was tested against the following selected test germs:
(§2) The effectiveness of the compound to be tested was determined by the suspension test in accordance with the guidelines of the Deutsche Gesellschaft for Hygiene and Mikrobiologie (DGHM). Test solutions containing quatemary carboxylic acid alkanolamine ester salts in the quantities shown in the Tables of 50, 100, 200, 400 and 800 mg/l were prepared using water with a hardness of 17° dH and optionally isopropanol.
(§3) At room temperatures, quantities of 0.1 ml test germ suspension were pipetted into test tubes containing 10 ml of the test solutions described above and mixed. After various contact times of 5, 15, 30 and 60 minutes, 1 ml of material was taken from the test tubes by pipette and transferred to 9 ml inactivator solution (inactivators: 3.0% Tween, 0.3% lecithin, 0.1% histidine). After in activation for at least 5 and at most 30 minutes, the living germ count was determined by plating out onto casein peptone-soybean flour peptone (CaSo)-agar plates. Using a spiral plater, the inactivating mixture was directly plated out onto CaSo-agar. The samples were incubated for 24 to 72 hours at 37° C. and macroscopically evaluated for growth. The destruction time or the residual germ count was determined in this way. The germ count of an unchallenged water control is related to the germ count of the inactivated test solution taking the dilution into account. The higher the value, the better the microbicidal effect. The symbol < means that the logarithmic reductuon factor is below the indicated value or, in the case of the symbol >, above the indicated value. The abbreviation CU stands for “concentration used”.

[2] = test system: Staphylococcus aureus ATCC 6538
Method: as §1, §2, §3

[3] = test system: Candida albicans ATCC 10231
Method: as §1, §2, §3

[4] = CU 50 mg/l, contact time 5 mins.
[5] = CU 50 mg/l, contact time 15 mins.
[6] = CU 50 mg/l, contact time 30 mins.
[7] = CU 50 mg/l, contact time 60 mins.
[8] = CU 100 mg/l, contact time 5 mins.
[9] = CU 100 mg/l, contact time 15 mins.
[10] = CU 100 mg/l, contact time 30 mins.
[11] = CU 100 mg/l, contact time 60 mins.
[12] = CU 200 mg/l, contact time 5 mins.
[13] = CU 200 mg/l, contact time 15 mins.
[14] = CU 200 mg/l, contact time 30 mins.
[15] = CU 200 mg/l, contact time 60 mins.
[16] = CU 400 mg/l, contact time 5 mins.
[17] = CU 400 mg/l, contact time 15 mins.
[18] = CU 400 mg/l, contact time 30 mins.
[19] = CU 400 mg/l, contact time 60 mins.
[20] = CU 800 mg/l, contact time 5 mins.
[21] = CU 800 mg/l, contact time 15 mins.
[22] = CU 800 mg/l, contact time 30 mins.
[23] = CU 800 mg/l, contact time 60 mins.

SMILES: CCCCCCCCCC(=O)OCC[N+](C)(CCO)CCOC(=O)CCCCCCCCC.COS(=O)(=O)[O-] [Example 6, methyl triethanolammonium dicapric acid ester methosulfate]
- logarithmic reduction factor [1, 4]: <1.85
- logarithmic reduction factor [1, 5]: <1.79
- logarithmic reduction factor [1, 6]: <1.71
- logarithmic reduction factor [1, 7]: <1.81
- logarithmic reduction factor [1, 8]: <1.85
- logarithmic reduction factor [1, 9]: <1.79
- logarithmic reduction factor [1, 10]: <1.71
- logarithmic reduction factor [1, 11]: 3.19
- logarithmic reduction factor [1, 12]: <1.85
- logarithmic reduction factor [1, 13]: <1.79
- logarithmic reduction factor [1, 14]: 3.35
- logarithmic reduction factor [1, 15]: 3.89
- logarithmic reduction factor [1, 16]: <1.85
- logarithmic reduction factor [1, 17]: <1.79
- logarithmic reduction factor [1, 18]: 4.18
- logarithmic reduction factor [1, 19]: >5.81
- logarithmic reduction factor [1, 20]: <1.85
- logarithmic reduction factor [1, 21]: 4.14
- logarithmic reduction factor [1, 22]: 4.76
- logarithmic reduction factor [1, 23]: >5.81
- logarithmic reduction factor [2, 4]: 4.12
- logarithmic reduction factor [2, 5]: >5.73
- logarithmic reduction factor [2, 6]: >5.75
- logarithmic reduction factor [2, 7]: >5.86
- logarithmic reduction factor [2, 8]: 4.58
- logarithmic reduction factor [2, 9]: >5.73
- logarithmic reduction factor [2, 10]: >5.75
- logarithmic reduction factor [2, 11]: >5.86
- logarithmic reduction factor [2, 12]: 4.55
- logarithmic reduction factor [2, 13]: >5.73
- logarithmic reduction factor [2, 14]: >5.75
- logarithmic reduction factor [2, 15]: >5.86
- logarithmic reduction factor [2, 16]: 4.48
- logarithmic reduction factor [2, 17]: >5.73
- logarithmic reduction factor [2, 18]: >5.75
- logarithmic reduction factor [2, 19]: >5.86
- logarithmic reduction factor [2, 20]: 5.44
- logarithmic reduction factor [2, 21]: >5.73
- logarithmic reduction factor [2, 22]: >5.75
- logarithmic reduction factor [2, 23]: >5.86
- logarithmic reduction factor [3, 4]: <0.87
- logarithmic reduction factor [3, 5]: 1.64
- logarithmic reduction factor [3, 6]: 1.93
- logarithmic reduction factor [3, 7]: 2.62
- logarithmic reduction factor [3, 8]: 1.27
- logarithmic reduction factor [3, 9]: 3.03
- logarithmic reduction factor [3, 10]: 3.75
- logarithmic reduction factor [3, 11]: 4.15
- logarithmic reduction factor [3, 12]: 1.24
- logarithmic reduction factor [3, 13]: 3.66
- logarithmic reduction factor [3, 14]: >4.78
- logarithmic reduction factor [3, 15]: >4.67
- logarithmic reduction factor [3, 16]: 1.38
- logarithmic reduction factor [3, 17]: 3.51
- logarithmic reduction factor [3, 18]: >4.78
- logarithmic reduction factor [3, 19]: >4.67
- logarithmic reduction factor [3, 20]: 1.33
- logarithmic reduction factor [3, 21]: >4.87
- logarithmic reduction factor [3, 22]: >4.78
- logarithmic reduction factor [3, 23]: >4.67

SMILES: CCCCCCCC(=O)OCC[N+](C)(CCO)CCOC(=O)CCCCCCC.COS(=O)(=O)[O-] [Example 7, Methyl triethanolammonium dicaprylic acid ester methosulfate]
- logarithmic reduction factor [1, 4]: <1.77
- logarithmic reduction factor [1, 5]: <1.72
- logarithmic reduction factor [1, 6]: <1.76
- logarithmic reduction factor [1, 7]: 3.65
- logarithmic reduction factor [1, 8]: 3.64
- logarithmic reduction factor [1, 9]: >5.72
- logarithmic reduction factor [1, 10]: >5.76
- logarithmic reduction factor [1, 11]: >5.86
- logarithmic reduction factor [1, 12]: 4.59
- logarithmic reduction factor [1, 13]: >5.72
- logarithmic reduction factor [1, 14]: 5.76
- logarithmic reduction factor [1, 15]: >5.86
- logarithmic reduction factor [1, 16]: 5.32
- logarithmic reduction factor [1, 17]: >5.72
- logarithmic reduction factor [1, 18]: >5.76
- logarithmic reduction factor [1, 19]: >5.86
- logarithmic reduction factor [1, 20]: >5.77
- logarithmic reduction factor [1, 21]: >5.72
- logarithmic reduction factor [1, 22]: >5.76
- logarithmic reduction factor [1, 23]: >5.86
- logarithmic reduction factor [2, 4]: >5.75
- logarithmic reduction factor [2, 5]: >5.53
- logarithmic reduction factor [2, 6]: >5.42
- logarithmic reduction factor [2, 7]: >5.69
- logarithmic reduction factor [2, 8]: >5.75
- logarithmic reduction factor [2, 9]: >5.53
- logarithmic reduction factor [2, 10]: >5.42
- logarithmic reduction factor [2, 11]: >5.69
- logarithmic reduction factor [2, 12]: >5.75
- logarithmic reduction factor [2, 13]: >5.53
- logarithmic reduction factor [2, 14]: >5.42
- logarithmic reduction factor [2, 15]: >5.69
- logarithmic reduction factor [2, 16]: >5.75
- logarithmic reduction factor [2, 17]: >5.53
- logarithmic reduction factor [2, 18]: >5.42
- logarithmic reduction factor [2, 19]: >5.69
- logarithmic reduction factor [2, 20]: >5.75
- logarithmic reduction factor [2, 21]: >5.53
- logarithmic reduction factor [2, 22]: >5.42
- logarithmic reduction factor [2, 23]: >5.69
- logarithmic reduction factor [3, 4]: >4.31
- logarithmic reduction factor [3, 5]: >4.18
- logarithmic reduction factor [3, 6]: >4.16
- logarithmic reduction factor [3, 7]: >4.27
- logarithmic reduction factor [3, 8]: >4.31
- logarithmic reduction factor [3, 9]: >4.18
- logarithmic reduction factor [3, 10]: >4.16
- logarithmic reduction factor [3, 11]: >4.27
- logarithmic reduction factor [3, 12]: >4.31
- logarithmic reduction factor [3, 13]: >4.18
- logarithmic reduction factor [3, 14]: >4.16
- logarithmic reduction factor [3, 15]: >4.27
- logarithmic reduction factor [3, 16]: >4.31
- logarithmic reduction factor [3, 17]: >4.18
- logarithmic reduction factor [3, 18]: >4.16
- logarithmic reduction factor [3, 19]: >4.27
- logarithmic reduction factor [3, 20]: >4.31
- logarithmic reduction factor [3, 21]: >4.18
- logarithmic reduction factor [3, 22]: >4.16
- logarithmic reduction factor [3, 23]: >4.27

SMILES: CCCCCCCCCC(=O)OCC[N+](C)(C)CCOC(=O)CCCCCCCCC.COS(=O)(=O)[O-] [Example 10, dimethyl diethanolammonium dicapric acid ester methosulfate]
- logarithmic reduction factor [1, 8]: 3.11
- logarithmic reduction factor [1, 9]: 3.48
- logarithmic reduction factor [1, 10]: 3.95
- logarithmic reduction factor [1, 11]: 4.84
- logarithmic reduction factor [1, 12]: 3.54
- logarithmic reduction factor [1, 13]: 4.51
- logarithmic reduction factor [1, 14]: 5.50
- logarithmic reduction factor [1, 15]: 5.44
- logarithmic reduction factor [1, 16]: 4.31
- logarithmic reduction factor [1, 17]: 5.04
- logarithmic reduction factor [1, 18]: 5.64
- logarithmic reduction factor [1, 19]: >5.79
- logarithmic reduction factor [2, 8]: >5.56
- logarithmic reduction factor [2, 9]: >5.55
- logarithmic reduction factor [2, 10]: >5.72
- logarithmic reduction factor [2, 11]: >5.69
- logarithmic reduction factor [2, 12]: >5.56
- logarithmic reduction factor [2, 13]: >5.55
- logarithmic reduction factor [2, 14]: >5.72
- logarithmic reduction factor [2, 15]: >5.69
- logarithmic reduction factor [2, 16]: >5.56
- logarithmic reduction factor [2, 17]: >5.55
- logarithmic reduction factor [2, 18]: >5.72
- logarithmic reduction factor [2, 19]: >5.69
- logarithmic reduction factor [3, 4]: 2.87
- logarithmic reduction factor [3, 5]: >4.84
- logarithmic reduction factor [3, 6]: >4.89
- logarithmic reduction factor [3, 7]: >4.80
- logarithmic reduction factor [3, 8]: 4.27
- logarithmic reduction factor [3, 9]: >4.84
- logarithmic reduction factor [3, 10]: >4.89
- logarithmic reduction factor [3, 11]: >4.80

Reference: patent US6420330B1, “Use of quaternary carboxylic acid alkanolamine ester salts as microbicide agents” (Cognis Deutschland GmbH, priority 1997, dated 2002)
